According to patent publication US9572891B2, “Oligonucleotide conjugates” (Geron Corporation, priority 2001, dated 2017):
Several values for one entry are separate records, joined by “and”; a condition that tells them apart may be missing. Equal values may be shown once. Read-outs that look alike come from different tables or passages of the source.

Target: T1, telomerase (Homo sapiens, UniProt O14746)
T1 construct: made in house; host or cells: 293 cells over-expressing hTERT
Test: Bio-Tel FlashPlate telomerase inhibition assay
Assay type: biochemical
Procedure: Extracts used for screening telomerase inhibitors were routinely prepared from 293 cells over-expressing the protein catalytic subunit of telomerase (hTERT). […] 200 ml of packed cells (harvested from about 100 liters of culture) were resuspended in an equal volume of hypotonic buffer (10 mM Hepes pH 7.9, 1 mM MgCl2, 1 mM DTT, 20 mM KCl, 1 mM PMSF) and lysed using a dounce homogenizer. The glycerol concentration was adjusted to 10% and NaCl was slowly added to give a final concentration of 0.3 M. The lysed cells were stirred for 30 min and then pelleted at 100,000×g for 1 hr. Solid ammonium sulfate was added to the S100 supernatant to reach 42% saturation. The material was centrifuged; the pellet was resuspended in one fifth of the original volume and dialyzed against Buffer ‘A’ containing 50 mM NaCl. After dialysis the extract was centrifuged for 30 min at 25,000×g. Prior to affinity chromatography, Triton X-100™ (0.5%), KCl (0.3 M) and tRNA ([…]) were added. Affinity oligonucleotide (5′-biotinTEG-biotinTEG-biotinTEG-GTA GAC CTG TTA CCA guu agg guu ag 3′ [SEQ ID NO: 16]; lower case represents 2′ O-methyl ribonucleotides and upper case represents deoxynucleotides) was added to the extract (1 nmol per 10 ml of extract). After an incubation of 10 min at 30° C., Neutravidin beads (Pierce; 250 μl of a 50% suspension) were added and the mixture was rotated overnight at 4° C. The beads were pelleted and washed three times with Buffer ‘B’ containing 0.3 M KCl, twice with Buffer ‘B’ containing 0.6 M KCl, and twice more with Buffer B containing 0.3 M KCl. Telomerase was eluted in Buffer ‘B’ containing 0.3 M KCl, 0.15% Triton X-100™ and a 2.5 molar excess of displacement oligonucleotide (5′-CTAACCCTAACTGGTAACAGGTCTAC-3′ [SEQ ID NO: 17] at 0.5 ml per 125 μl of packed Neutravidin beads) for 30 min. at room temperature. A second elution was performed and pooled with the first. Purified extracts typically had specific activities of 10 fmol nucleotides incorporated/min/μl extract, or 200 nucleotides/min/mg total protein.
A suitable assay for detection and/or measurement of telomerase activity is based on a measurement of the addition of TTAGGG (SEQ ID NO. 8) telomeric repeats to a biotinylated telomerase substrate primer, a reaction catalyzed by telomerase. The biotinylated products are captured in streptavidin-coated microtiter plates. An oligonucleotide probe complementary to 3.5 telomere repeats labeled with ^33P is used for measuring telomerase products, as described below. Unbound probe is removed by washing and the amount of probe annealing to the captured telomerase products is determined by scintillation counting.
The data provided in Tables 1 and 2 below were obtained by performing the assay as described below: • 1. Oligonucleotide conjugates were stored as concentrated stocks and dissolved in PBS. • 2. For testing, the oligonucleotide conjugates were diluted to a 15× working stock in PBS and 2 μl was dispensed into two wells of a 96-well microtiter dish (assayed in duplicate). • 3. Telomerase extract was diluted to a specific activity of 0.04-0.09 fmol dNTP incorporated/min./μl in Telomerase Dilution Buffer and 18 μl added to each sample well to preincubate with compound for 30 minutes at room temperature. • 4. The telomerase reaction was initiated by addition of 10 μl Master Mix to the wells containing telomerase extract and oligonucleotide compound being tested. The plates were sealed and incubated at 37° C. for 90 min. • 5. The reaction was stopped by the addition of 10 μl HCS. • 6. 25 μl of the reaction mixture was transferred to a 96-well streptavidin-coated FlashPlate™ (NEN) and incubated for 2 hours at room temperature with mild agitation. • 7. The wells were washed three times with 180 μl 2×SSC without any incubation.
8. The amount of probe annealed to biotinylated telomerase products was detected in a scintillation counter.

[1] = Table 1, oligonucleotide has N3′→P5′ phosphoramidate (NP) internucleoside linkages, read-out: IC50 NP
[2] = Table 1, oligonucleotide has N3′→P5′ thio-phosphoramidate (NPS) internucleoside linkages, read-out: IC50 NPS
[3] = Table 2, oligonucleotide has N3′→P5′ thio-phosphoramidate (NPS) internucleoside linkages, read-out: IC50 NPS

T1 sequence (O14746 whole entry): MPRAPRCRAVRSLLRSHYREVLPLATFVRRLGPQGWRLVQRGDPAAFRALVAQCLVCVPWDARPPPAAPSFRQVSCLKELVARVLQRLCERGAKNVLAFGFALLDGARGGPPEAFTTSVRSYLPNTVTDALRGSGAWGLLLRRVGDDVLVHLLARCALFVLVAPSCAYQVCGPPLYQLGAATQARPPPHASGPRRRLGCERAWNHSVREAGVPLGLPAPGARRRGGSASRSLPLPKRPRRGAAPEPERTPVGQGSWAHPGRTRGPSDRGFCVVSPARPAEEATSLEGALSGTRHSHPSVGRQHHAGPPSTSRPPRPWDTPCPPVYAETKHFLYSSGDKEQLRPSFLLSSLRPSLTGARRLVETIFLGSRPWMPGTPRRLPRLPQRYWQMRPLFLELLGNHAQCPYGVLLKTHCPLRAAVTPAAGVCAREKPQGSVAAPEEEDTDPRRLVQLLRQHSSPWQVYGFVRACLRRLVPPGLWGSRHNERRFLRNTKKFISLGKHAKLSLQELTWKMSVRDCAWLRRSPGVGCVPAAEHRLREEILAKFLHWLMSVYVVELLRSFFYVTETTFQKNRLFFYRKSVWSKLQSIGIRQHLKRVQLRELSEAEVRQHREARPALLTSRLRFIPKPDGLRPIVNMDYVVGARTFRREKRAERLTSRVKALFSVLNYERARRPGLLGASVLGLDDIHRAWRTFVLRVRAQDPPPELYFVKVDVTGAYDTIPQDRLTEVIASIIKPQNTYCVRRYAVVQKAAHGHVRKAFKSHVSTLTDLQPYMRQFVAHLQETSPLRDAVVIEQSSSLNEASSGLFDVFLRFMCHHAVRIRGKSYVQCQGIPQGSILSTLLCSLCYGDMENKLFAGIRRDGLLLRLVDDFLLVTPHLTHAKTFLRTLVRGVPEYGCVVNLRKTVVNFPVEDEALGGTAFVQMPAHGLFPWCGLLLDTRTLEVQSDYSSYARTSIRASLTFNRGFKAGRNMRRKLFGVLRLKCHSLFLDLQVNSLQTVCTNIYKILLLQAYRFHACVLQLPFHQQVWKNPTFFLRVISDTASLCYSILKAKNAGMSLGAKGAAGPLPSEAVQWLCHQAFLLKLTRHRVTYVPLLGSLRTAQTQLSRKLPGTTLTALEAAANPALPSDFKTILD
T1 sequence (O60832 whole entry partner): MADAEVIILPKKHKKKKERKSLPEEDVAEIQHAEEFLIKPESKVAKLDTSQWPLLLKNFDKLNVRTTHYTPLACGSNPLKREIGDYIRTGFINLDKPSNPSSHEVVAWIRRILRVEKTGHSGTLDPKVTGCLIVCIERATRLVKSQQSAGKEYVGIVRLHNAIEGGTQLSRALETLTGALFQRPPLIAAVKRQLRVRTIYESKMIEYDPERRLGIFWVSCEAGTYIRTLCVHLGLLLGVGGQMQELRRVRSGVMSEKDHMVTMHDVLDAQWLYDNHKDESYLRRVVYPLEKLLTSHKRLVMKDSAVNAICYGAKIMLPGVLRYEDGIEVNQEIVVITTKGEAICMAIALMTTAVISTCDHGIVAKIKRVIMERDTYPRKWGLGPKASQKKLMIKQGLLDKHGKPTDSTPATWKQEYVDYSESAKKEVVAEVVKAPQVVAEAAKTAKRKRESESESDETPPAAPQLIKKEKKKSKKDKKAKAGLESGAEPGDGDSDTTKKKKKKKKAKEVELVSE
T1 sequence (Q9NPE3 whole entry partner): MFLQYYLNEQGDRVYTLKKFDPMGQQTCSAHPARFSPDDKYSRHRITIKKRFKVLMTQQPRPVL
T1 sequence (Q9NX24 whole entry partner): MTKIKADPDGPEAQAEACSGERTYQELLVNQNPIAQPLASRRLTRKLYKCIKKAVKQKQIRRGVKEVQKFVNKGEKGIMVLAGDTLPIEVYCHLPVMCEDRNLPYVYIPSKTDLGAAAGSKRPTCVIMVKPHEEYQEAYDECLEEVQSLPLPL
T1 sequence (Q9NY12 whole entry partner): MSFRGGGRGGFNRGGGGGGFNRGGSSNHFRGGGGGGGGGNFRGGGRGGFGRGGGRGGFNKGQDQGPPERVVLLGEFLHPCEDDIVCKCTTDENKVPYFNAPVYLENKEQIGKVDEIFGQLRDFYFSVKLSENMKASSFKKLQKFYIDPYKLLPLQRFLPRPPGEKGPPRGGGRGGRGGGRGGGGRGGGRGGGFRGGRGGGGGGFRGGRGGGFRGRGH

## GGGTTAG (unconjugated): unconjugated oligonucleotide GGGTTAG (SEQ ID: 6), tested with NP and with NPS internucleoside linkages
[1]
  IC50: 600 nM
[2]
  IC50: 9 nM and 5 nM and 10 nM and 8 nM
[3]
  IC50: 9 nM and 5 nM and 10 nM

## GTTAGG (unconjugated): unconjugated oligonucleotide GTTAGG (SEQ ID: 7), NP and NPS forms
[1]
  IC50: 470 nM
[2]
  IC50: 120 nM

## TTAGGG (unconjugated): unconjugated oligonucleotide TTAGGG (SEQ ID: 8), NP and NPS forms
[1]
  IC50: 11000 nM
[2]
  IC50: 1200 nM
[3]
  IC50: 1170 nM and 1000 to 55000 nM
